In one assay the test system is non-malignant cells. In words: Fold change in cell death on raising the Etoposide dose, non-malignant cells (FIG. 9a-b). The conditions noted are these: 75 nM Roc-A in parallel to Etoposide, 6.25 μM to 50 μM, 24 h. The format is cell-based. On the procedure:
(§1) (a) Cells from (b) were grouped into malignant and non-malignant cells. Shown are means of three independent experiments. Abbreviations; HSPCs=hematopoietic stem and progenitor cells. (c-d) Malignant and non-malignant cells were exposed to ionizing radiation (IR) in the presence of 75 nM Roc-A or solvent (DMSO) and cell death was determined after 24 h by DNA fragmentation. Depicted is the fold-change in cell death that was measured when doses of IR were increased from 2 Gy to 10 Gy. (c) Cells from (d) were grouped into malignant and non-malignant cells. Shown are means of three independent experiments.
(§2) DNA fragmentation was determined by FACS.
(§3) Roc-A specifically prevents the cause of chemotherapeutic and radiation-induced side-effects, i.e., the death of healthy cells. […] Consequently, high-dose therapy is not possible, as side effects would be too high.

The next assay has as its system p53. In words: p53 protein expression by immunoblot. It is filed as cell-based, human. On the procedure: Immunoblot analysis was carried out as previously described (Polier et al., Chem Biol. 2012; 19: 1093-1104). Briefly, 4-20×10^6 cells were treated with different reagents as indicated and lysed in RIPA buffer (50 mM Tris HCl, 137 mM NaCl, 0.5% Na Deoxycholate, 1% Triton X-100, 0.1% SDS, protease inhibitors). Proteins were separated by SDS-PAGE and transferred to a nitrocellulose membrane (Amersham Biosciences, Little Chalfon, UK) using a semi-dry blotting approach. The following antibodies were used: p53 (DO-1) antibody was purchased from Santa Cruz Biotechnology (Heidelberg, Germany). Tubulin and actin (A5441) antibodies were purchased from Sigma-Aldrich (St. Louis, USA).
The transcription factor p53 is a major regulator of DNA damage-induced apoptosis (Lowe et al., Cell. 1993; 74: 957-967). Therefore, we investigated the effect of Roc-A on the expression level of p53.
p53 protein expression can be regulated at the level of transcription, translation, and ubiquitination-mediated degradation (Marine & Lozano, Cell Death Differ. 2010; 17: 93-102). It has been shown that upon DNA damage p53 undergoes post-translational modifications leading to its deubiquitination and, thus, stabilization (Lee & Gu, Cell Death Differ. 2010; 17: 86-92). To investigate whether Roc-A could decrease p53 stability, we treated T cells with the proteasome inhibitor Bortezomib to block proteasome-mediated degradation.
Background: A western blot detects proteins with antibodies after separation by electrophoresis.

Assay [1] concerns L1236 (Hodgkin's lymphoma), p53 mutated. In words: Etoposide-induced cell death in L1236. Conditions: L1236 (FIG. 5a). It is filed as cell-based, human. On the procedure:
as §2
(§4) Since Roc-A-mediated protection of non-malignant cells from DNA-damage-induced cell death is largely p53-dependent, we predicted that Roc-A would not protect cancer cells which have non-functional p53. […] 1997; 19: 243-253), Reh (Zhou et al, loc cit.), SKW6.4 (Barbarotto et al., J Cell Biochem. 2008; 104: 595-605) and NCI-H209 (Fujita et al. Int J Oncol. 1999; 15: 927-934) which have a WT p53 protein.

Another assay concerns malignant cells. Nature of the assay: Fold change in cell death on raising the Etoposide dose, malignant cells (FIG. 9a-b). It is filed as cell-based. The conditions noted are these: 75 nM Roc-A in parallel to Etoposide, 6.25 μM to 50 μM, 24 h. On the procedure:
as §1, §2, §3

Assay [2] concerns DND-41 (T cell leukemia), p53 mutated. In words: Etoposide-induced cell death in DND-41. The format is cell-based, human. Conditions: DND-41 (FIG. 5a). On the procedure: as §2, §4
Assay [3] concerns HL-60 (promyelocytic leukemia), p53-deficient. Nature of the assay: Etoposide-induced cell death in HL-60. Conditions: HL-60 (FIG. 5a). The format is cell-based, human. On the procedure:
as §2, §4

In assay [4] the test system is Splenocytes from p53+/+ mice. In words: Etoposide-induced cell death in p53 wild-type splenocytes. The conditions noted are these: p53-WT splenocytes, 50 μM Etoposide, 75 nM Roc-A (FIG. 4b). It is filed as cell-based, mouse. On the procedure: as §2
P53^−/− C57B1/6 mice (B6.Trp53tm1Tyj) were kindly provided by Liu H-K (German Cancer Research Center, Heidelberg, Germany). Spleens of 8-12 week old p53^−/−, and p53^+/+ mice were isolated in parallel, minced and incubated for 30 min in RPMI-1640 medium supplemented with DNase I (50 U/ml) and Collagenase IV (1 mg/ml) at 37° C. and 5% CO2. Splenocytes were filtered by […] cell strainer, washed twice with ice-cold wash buffer (PBS, 0.5% FCS, 2 mM EDTA) and resuspended in Oxford medium (RPMI 1640, 10% FCS, 100 μg/ml Penicillin, 100 μg/ml Streptamycin, 10 mM Hepes, 50 μM β-Mercaptoethanol, 2 mM L-glutamine, 1 mM sodium pyruvate, 100 μM non-essential amino acids) at a concentration of 2×10^6 cells/ml.
To further investigate the role of p53 in Roc-A-mediated protection of T cells against DNA damage-induced apoptosis, we performed a p53 knock-down experiment using a siRNA approach (FIG. 4a, upper panel). […] Therefore, we examined the effect of Roc-A on p53 knock-out (KO) cells.

Assay [5] has as its system Hut-78 (T cell lymphoma), p53 mutated. In words: Etoposide-induced cell death in Hut-78. It is filed as cell-based, human. Conditions: Hut-78 (FIG. 5a). On the procedure: as §2, §4
The next assay relates to neutrophils. In words: Etoposide-induced apoptosis in neutrophils. It is filed as cell-based, human. Conditions: neutrophils (FIG. 1c). On the procedure:
as §2
Next, we asked whether Roc-A could also protect other normal primary cells from DNA damage-induced toxicity. To address this question, we examined the protective effect of Roc-A on Etoposide-treated human peripheral blood B cells, NK cells, neutrophils, cardiomyocytes and murine hematopoietic stem and progenitor cells (HSPCs).

Assay [6] relates to IM-9 (Chronic myeloid leukemia), WT p53. Nature of the assay: Etoposide-induced cell death in IM-9. The conditions noted are these: IM-9 (FIG. 5b). It is filed as cell-based, human. On the procedure: as §2, §4
Assay [7] concerns SKW6.4 (B cell leukemia), WT p53. Nature of the assay: Etoposide-induced cell death in SKW6.4. It is filed as cell-based, human. Conditions: SKW6.4 (FIG. 5b). On the procedure:
as §2, §4

“Also recorded” adds a separate entry of the source.

Turning to `COc1ccc([C@@]23Oc4cc(OC)cc(OC)c4[C@]2(O)[C@H](O)[C@H](C(=O)N(C)C)[C@H]3c2ccccc2)cc1` [Roc-A, (1R,2R,3S,3aR,8bS)-1,8b-dihydroxy-6,8-dimethoxy-3a-(4-methoxyphenyl)-N,N-dimethyl-3-phenyl-2,3-dihydro-1H-cyclopenta[b][1]benzofuran-2-carboxamide], the “Change in cell death on increased Etoposide doses with Roc-A” value with non-malignant cells is given as “only resulted in increased cell death in malignant cells”; with malignant cells, “increased cell death in malignant cells”. In addition, the “Etoposide-induced p53 increase” value in the assay on p53 (B cells (FIG. 3d)) and with p53 (NK cells (FIG. 3e)) was “inhibits Etoposide-induced p53 upregulation; also recorded: suppressed” throughout. Also, the “p53 upregulation by IR, Bleomycin, Teniposide, Doxorubicin” value with p53 (T cells (FIG. 3b, f)) is “inhibits Etoposide-(a), Bleomycin-, Teniposide- and Doxorubicin-(b) induced p53 upregulation in T cells; also recorded: inhibition was also observed”. For the same compound, the “Upregulation of p53, kinetic analysis” value in the assay on p53 (T cells, 50 μM Etoposide, 75 nM Roc-A (FIG. 3c)) is “could inhibit upregulation of p53 at all time-points analyzed”. In addition, the “Etoposide-induced p53 protein expression” value with p53 (T cells, increasing Etoposide, different concentrations of Roc-A (FIG. 3a)) is “inhibits Etoposide-(a), Bleomycin-, Teniposide- and Doxorubicin-(b) induced p53 upregulation in T cells; also recorded: p53 expression was blocked in a dose-dependent manner”. The “Protection against Etoposide-induced cell death” value in [1] is “did neither protect”; in [2] it was “did neither protect”; in assay [3], “did neither protect”; in [4] it was “protected”; in assay [5], “did neither protect”; in assay [6], “protected by Roc-A from Etoposide-induced cell death but to a lesser extent than non-malignant cells”. Moreover, in assay [7], the “Protection against Etoposide-induced cell death” value is “protected by Roc-A from Etoposide-induced cell death but to a lesser extent than non-malignant cells”. Also, the “Protection against Etoposide-induced apoptosis” value in the assay with neutrophils is “protected”.

(Values after US20160287553A1, “TRANSLATION INHIBITORS IN HIGH-DOSE CHEMO- AND/OR HIGH-DOSE RADIOTHERAPY” (DEUTSCHES KREBSFORSCHUNGSZENTRUM, priority 2013, published 2016).)
